In patent US20100261753A1, “METHODS FOR PREVENTING AND/OR TREATING DEGENERATIVE DISORDERS OF THE CENTRAL NERVOUS SYSTEM” (AMICUS THERAPEUTICS, INC., priority 2009, published 2010):
Counter-ions that a name gives are not always drawn. Like-named read-outs stand apart in the source and are kept apart here. Each block holds one compound with its values, some of them ahead of it.

Assays:
GCase = target: T1, GCase (Mus musculus, UniProt P17439); experiment: GCase enhancement in tissues of mice after 2-week oral dosing; type: in vivo, mice (C57BL/6); conditions: for GCase Increase (-fold): nine doses over 2 weeks; for GCase enhancement in brain, spleen, liver and lung: compared to mice administered control or IFG-tartrate
T1 construct: Liver, spleen, lung, and brain tissues were removed; from tissue; host or cells: brain, spleen, liver and lung of wild-type C57BL/6 mice
T1 sequence (P17439 20-515): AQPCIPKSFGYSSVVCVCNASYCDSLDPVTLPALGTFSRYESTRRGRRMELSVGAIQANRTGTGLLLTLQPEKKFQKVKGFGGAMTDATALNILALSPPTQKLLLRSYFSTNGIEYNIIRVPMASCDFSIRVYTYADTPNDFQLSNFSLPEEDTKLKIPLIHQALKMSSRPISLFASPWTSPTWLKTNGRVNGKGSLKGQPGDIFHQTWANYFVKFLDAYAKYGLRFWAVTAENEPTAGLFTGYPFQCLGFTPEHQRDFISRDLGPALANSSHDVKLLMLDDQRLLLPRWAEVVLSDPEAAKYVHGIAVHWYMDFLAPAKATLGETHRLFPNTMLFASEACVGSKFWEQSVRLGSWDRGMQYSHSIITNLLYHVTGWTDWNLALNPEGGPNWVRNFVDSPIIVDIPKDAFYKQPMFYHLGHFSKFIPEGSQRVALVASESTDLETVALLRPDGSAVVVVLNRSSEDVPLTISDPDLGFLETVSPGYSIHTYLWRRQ
Protocol: The ability of orally administered test compounds (the hydrochloride salt form of Compound A and Compound B) to elevate GCase levels as compared to reference compound, IFG-tartrate, was assessed in mice. […] Seven animals were used per dose. The dosing solutions were prepared in water. Compounds were administered over 2 weeks as follows: week 1, Mon-Fri (On), Sat-Sun (Off); week 2, Mon-Thu (On); necropsy on Friday. Thus, a total of 9 doses (dosing solutions prepared fresh every day) were given to each mouse, with a 24-hour washout between the last dose and necropsy.
Plasma was collected by spinning blood at 2700 g for 10 minutes at 4° C. Liver, spleen, lung, and brain tissues were removed, washed in cold PBS, blotted dry, flash frozen on dry ice, and stored at −80° C. until analysis. GCase levels were measured by homogenizing approximately 50 mg tissue in 500 μl McIlvane (MI) buffer (100 mM sodium citrate, 200 mM sodium phosphate dibasic, 0.25% sodium taurocholate, and 0.1% Triton X-100, pH 5.2) at pH 5.2 for 3-5 seconds on ice with a micro homogenizer. Homogenates were then incubated at room temperature without and with 2.5 mM conduritol-B-epoxide (CBE) for 30 min. Finally, 3.7 mM 4-methylumbeliferryl-β-glucoside (4-MUG) substrate was added and incubated at 37° C. for 60 min. Reactions were stopped by addition of 0.4 M glycine, pH 10.6. Fluorescence was measured on a plate reader for 1 sec/well using 355 nm excitation and 460 nm emission. Total protein was determined in lysates using the MicroBCA kit according to the manufacturer's instructions. A 4-methylumbelliferone (4-MU) standard curve ranging from 1.0 nM to 50 μM was run in parallel for conversion of raw fluorescence data to absolute GCase activity (in the presence and absence of CBE) and expressed as nanomoles of 4-MU released per milligram of protein per hour (nmol/mg protein/hr). GCase levels and protein levels were calculated using Microsoft Excel (Redmond, Wash.) and GraphPad Prism version 4.02.

[1] = Blood brain barrier penetration after a single p.o. dose in mice; type: in vivo, mice (C57BL/6); conditions: single 30 mg/kg (free base equivalent) p.o.
Protocol: For this purpose, 8-week old wild-type male mice (C57BL/6) were administered a single 30 mg/kg (free base equivalent) p.o. dose of reference or test compound by gavage (n=3 mice per time point). Dosing solutions were prepared in water. After dosing, mice were euthanized with CO2 at the following time points: 0-, 0.5-, 1-, and 4-hour post-dose. […] Similarly, brains were collected from each mouse. Plasma was derived by spinning whole blood at 2700 g for 10 minutes at 4° C. followed by storage on dry ice. Whole brains were washed in cold PBS to remove contaminating blood, blotted dry, flash frozen on dry ice, and ultimately stored at −80° C. until analysis. To prepare brain samples for analysis, 50-100 mg of tissue was homogenized in […]. Samples were then clarified by centrifugation. Next, 25 μl of the brain homogenate supernatant or 25 μl of plasma were combined with 25 μl of acetonitrile:water (95/5). […] Between 20 and 30 μl sample was injected for analysis. […] When Compound B was analyzed, Compound A was used as internal standard (150.1/130.1). For calculating drug concentrations, raw data for plasma (ng/mL) and brain (ng/g) was converted to nM using the molecular weight of respective compounds and assuming 1 g of tissue is equivalent to 1 mL volume. Concentration as a function of time was plotted in GraphPad Prism version 4.02.

Rat pharmacokinetics = type: in vivo, Sprague-Dawley rats
Protocol: Pharmacokinetic (PK) data was obtained in rats to assess the bioavailability of test compound. In particular, the following PK parameters were calculated: bioavailability as measured by area under the Concentration/Time curve (AUC), fraction of dose available (% F; further defined below), clearance (CL), volume of distribution (Vd), and half-life (t½). For this purpose, 8-week old Sprague-Dawley male rats were given either a single intravenous (IV) dose equivalent to 3 mg/kg of free base or single escalating p.o. (gavage) doses of test compound equivalent to 10, 30, and 100 mg/kg of free base. Three rats were used per dosing group. Blood was collected over a 24-hr period. The time points for blood collection after intravenous administration were: 0, 2.5, 5, 10, 15, 30, 45 min, 1, 2, 4, 8, 12, and 24 hrs; time points for blood collection after p.o. administrations were: 0, 5, 15, 30, 45 min, 1, 2, 3, 4, 8, 12, and 24 hrs. Plasma samples were analyzed for compound levels by LC-MS/MS at PPD. Raw data was analyzed by non-compartmental analysis in Win-nonLin to calculate Vd, % F, CL, and […].

[2] = male, Sprague-Dawley, plasma, IV, 3 mg/kg free base

GCase Increase (-fold) (GCase; brain, 10 mg/kg p.o., Table 4A): 1.3 -fold
GCase Increase (-fold) (GCase; brain, 100 mg/kg p.o., Table 4A): 3.5 -fold
GCase Increase (-fold) (GCase; spleen, 10 mg/kg p.o., Table 4B): 1.4 -fold
GCase Increase (-fold) (GCase; spleen, 100 mg/kg p.o., Table 4B): 2.2 -fold
SMILES: O[C@@H]1[C@@H](CCl)CNC[C@H]1O [Compound B, (3R,4R,5S)-5-(chloromethyl)piperidine-3,4-diol]
GCase enhancement in brain, spleen, liver and lung (GCase): statistically significant greater GCase enhancement
brain levels ([1]; compared to hydrochloride salt form of Compound A): even higher levels of Compound B were detected in brain

SMILES: O[C@@H]1CNCC(CF)[C@H]1O (stereo in doubt) [Compound A, (3R,4R,5R)-5-(fluoromethyl)piperidine-3,4-diol]
CL (Rat pharmacokinetics; PO, 30 mg/kg free base): 66.82 ± 8.48 mL/min/kg
VD (Rat pharmacokinetics; PO, 30 mg/kg free base): 13.532 ± 3.291 L/kg
CL (Rat pharmacokinetics; PO, 100 mg/kg free base): 56.55 ± 3.48 mL/min/kg
VD (Rat pharmacokinetics; PO, 100 mg/kg free base): 13.101 ± 1.518 L/kg
Cmax (Rat pharmacokinetics; [2]): 7270 ± 139 ng/mL
Vd (Rat pharmacokinetics; [2]): 3.48 ± 0.232 L/kg
clearance (Rat pharmacokinetics; [2]): 27.8 mL/min/kg
AUC(0-t) (Rat pharmacokinetics; male, Sprague-Dawley, plasma, IV, 3 mg/kg free base (3.72 mg/kg salt)): 1800 ± 42.7 ng·h/mL
half-life (Rat pharmacokinetics; male, Sprague-Dawley, plasma, IV, 3 mg/kg free base, read-out: t1/2 (converted)): 1.4 ± 0.1 h
Cmax (Rat pharmacokinetics; male, Sprague-Dawley, plasma, PO, 10 mg/kg free base): 1290 ± 271 ng/mL
AUC(0-t) (Rat pharmacokinetics; male, Sprague-Dawley, plasma, PO, 10 mg/kg free base (12.4 mg/kg salt)): 2980 ± 228 ng·h/mL
bioavailability (Rat pharmacokinetics; male, Sprague-Dawley, plasma, PO, 10 mg/kg free base, read-out: % F): 50 ± 3.8%
half-life (Rat pharmacokinetics; male, Sprague-Dawley, plasma, PO, 10 mg/kg free base, read-out: t1/2 (converted)): 1.2 ± 0.4 h
Cmax (Rat pharmacokinetics; male, Sprague-Dawley, plasma, PO, 30 mg/kg free base): 2870 ± 355 ng/mL
AUC(0-t) (Rat pharmacokinetics; male, Sprague-Dawley, plasma, PO, 30 mg/kg free base (37.2 mg/kg salt)): 8250 ± 388 ng·h/mL
bioavailability (Rat pharmacokinetics; male, Sprague-Dawley, plasma, PO, 30 mg/kg free base, read-out: % F): 46 ± 2.5%
half-life (Rat pharmacokinetics; male, Sprague-Dawley, plasma, PO, 30 mg/kg free base, read-out: t1/2 (converted)): 2.3 ± 0.3 h
Cmax (Rat pharmacokinetics; male, Sprague-Dawley, plasma, PO, 100 mg/kg free base): 9390 ± 742 ng/mL
AUC(0-t) (Rat pharmacokinetics; male, Sprague-Dawley, plasma, PO, 100 mg/kg free base (124 mg/kg salt)): 29600 ± 1750 ng·h/mL
bioavailability (Rat pharmacokinetics; male, Sprague-Dawley, plasma, PO, 100 mg/kg free base, read-out: % F): 49 ± 2.7%
half-life (Rat pharmacokinetics; male, Sprague-Dawley, plasma, PO, 100 mg/kg free base, read-out: t1/2 (converted)): 2.6 ± 0.1 h
blood brain barrier crossing ([1]; compared to IFG): crossed the blood brain barrier more readily as compared to IFG

SMILES: O[C@@H]1CNCC(CF)[C@H]1O (stereo in doubt) [Compound A-HCl, (3R,4R,5R)-5-(fluoromethyl)piperidine-3,4-diol hydrochloride]
GCase enhancement in brain, spleen, liver and lung (GCase): statistically significant greater GCase enhancement
bioavailability (Rat pharmacokinetics; male, Sprague-Dawley, plasma, po, read-out: oral bioavailability): ~50%
half-life (Rat pharmacokinetics; male, Sprague-Dawley, plasma, read-out: half-life): 1 to 2.5 h
